This assay deals with T1, FAAH (Rattus norvegicus, UniProt P97612).
T1 construct: Preparation of Rat Brain Membranes Preparations (FAAH Enzyme Solution); from tissue; host or cells: rat cerebrum (brain membrane preparation)
T1 sequence (P97612 1-579): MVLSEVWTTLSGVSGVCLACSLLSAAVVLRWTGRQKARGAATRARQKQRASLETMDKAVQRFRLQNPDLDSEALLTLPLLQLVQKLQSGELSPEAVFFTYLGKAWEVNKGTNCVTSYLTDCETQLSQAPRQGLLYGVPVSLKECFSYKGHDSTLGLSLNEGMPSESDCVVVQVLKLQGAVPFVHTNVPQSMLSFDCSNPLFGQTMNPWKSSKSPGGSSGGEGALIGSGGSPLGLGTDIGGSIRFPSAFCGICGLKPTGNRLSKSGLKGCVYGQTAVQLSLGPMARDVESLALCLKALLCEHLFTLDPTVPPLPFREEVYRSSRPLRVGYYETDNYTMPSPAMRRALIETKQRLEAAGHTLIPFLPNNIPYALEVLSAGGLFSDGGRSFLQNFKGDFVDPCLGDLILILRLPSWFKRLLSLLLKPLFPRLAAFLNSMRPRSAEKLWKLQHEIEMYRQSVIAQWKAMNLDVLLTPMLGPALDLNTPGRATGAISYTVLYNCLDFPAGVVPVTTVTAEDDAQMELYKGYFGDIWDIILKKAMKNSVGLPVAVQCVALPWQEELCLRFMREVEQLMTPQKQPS
The assay is described as follows: Determination of FAAH inhibitory activity in rat (rat brain membrane preparations, [3H]-anandamide hydrolysis). It is filed as biochemical. Conditions: rat brain membrane preparations; for IC50: read-out: FAAH Inhibition IC50. The method, boiled down: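 Compounds tested from 0.1 nM to 1 μM to derive IC50 against FAAH hydrolysis in rat brain membrane preparations (100 μg/mL). A 10-min 37 °C preincubation was followed by 10 min with [3H]-anandamide (2 nM) mixed with 2 μM unlabelled anandamide. Radioactive ethanolamine was extracted into the water/methanol layer and counted.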

Where [1] appears, read: 100 nM test substance, read-out: FAAH Inhibition, Inhibition Rate at 100 nM.
[2] abbreviates: at 100 nM, read-out: FAAH Inhibition Inhibition Rate at 100 nM.

Like-named read-outs stand apart in the source and are kept apart here.

Take `Cc1ccc(CCc2ncc3c(n2)n(C(=O)N2CCC2)c(=O)n3C)cc1C` [compound 565]: under setting [1], the inhibition at 0.1 µM came to 99%. For the same molecule, the IC50 (test substance 0.1 nM to 1 μM) worked out at 10 nM.
Take `Cc1cc(C)c(CCc2ncc3c(n2)n(C(=O)N2CCC2)c(=O)n3C)c(C)c1` [compound 566]: the inhibition at 0.1 µM under setting [1] came to 96%. Moreover, for the setting “test substance 0.1 nM to 1 μM”, the IC50 turned out to be 10 nM.
`Cn1c(=O)n(C(=O)N2CCC2)c2nc(CCc3cccc(C4CC4)c3)ncc21` [compound 572]: under setting [1], the inhibition at 0.1 µM was determined as 83%. Besides, under “test substance 0.1 nM to 1 μM”, the concentration for half-maximal inhibition (IC50) was found to be 99 nM.
The matching figures for `Cn1c(=O)n(C(=O)N2CCC2)c2nc(CCc3ccc(C4CC4)cc3)ncc21` [compound 573]: 99% and 16 nM.
As to `Cn1c(=O)n(C(=O)N2CCC2)c2nc(CCc3ccc(Cl)cc3)ncc21` [compound 575], under setting [1], the inhibition at 0.1 µM came out at 102%. Moreover, the IC50 (test substance 0.1 nM to 1 μM) stood at 10 nM.
For `Cc1ccccc1CCc1ncc2c(n1)n(C(=O)N1CCC1)c(=O)n2C` [compound 591] the same measures were 57% and 75 nM.
The matching figures for `Cn1c(=O)n(C(=O)N2CCC2)c2nc(CCc3cccc(C(F)F)c3)ncc21` [compound 594]: 84% and 21 nM.
On to `Cn1c(=O)n(C(=O)N2CCC2)c2nc(CCc3ccc(C(F)(F)F)cc3)ncc21` [compound 597], for which the inhibition at 0.1 µM under setting [1] turned out to be 92%. The IC50 (test substance 0.1 nM to 1 μM) is 10 nM.
On to `CCOc1cccc(CCc2ncc3c(n2)n(C(=O)N2CCC2)c(=O)n3C)c1` [compound 604], for which the IC50 is 15 nM. Moreover, the inhibition at 0.1 µM under setting [2] came out at 92%.
Regarding `Cn1c(=O)n(C(=O)N2CCC2)c2nc(CCc3ccc(OC(F)(F)F)cc3)ncc21` [compound 609], the IC50 was determined as 4 nM. Besides, under setting [2], the inhibition at 0.1 µM came out at 108%.
As for `Cn1c(=O)n(C(=O)N2CC(c3ccc(F)cc3)C2)c2cnc(C3CC3)nc21` [compound 621], the 50% inhibitory concentration (IC50) worked out at 10 nM. In addition, the inhibition at 0.1 µM under setting [2] is 78%.
The matching figures for `Cn1c(=O)n(C(=O)N2CC(c3cccc(F)c3)C2)c2cnc(C3CC3)nc21` [compound 622]: 1 nM and 116%.
For `Cn1c(=O)n(C(=O)N2CC(c3ccccc3)C2)c2cnc(C3CC3)nc21` [compound 623] the same measures were 3 nM and 87%.
Consider `CCCc1ncc2c(n1)n(C)c(=O)n2C(=O)N1CC(c2ccc(F)cc2)C1` [compound 624], for which the IC50 turned out to be 18 nM. Also, the inhibition at 0.1 µM under setting [2] came out at 97%.
For `CCCc1ncc2c(n1)n(C)c(=O)n2C(=O)N1CC(c2cccc(F)c2)C1` [compound 625] the same measures were 7 nM and 104%.
For the molecule `CCCc1ncc2c(n1)n(C)c(=O)n2C(=O)N1CC(c2ccccc2)C1` [compound 626], the IC50 came out at 4 nM. Under setting [2], the inhibition at 0.1 µM stood at 128%.
The matching figures for `CCc1ncc2c(n1)n(C)c(=O)n2C(=O)N1CC(c2ccccc2)C1` [compound 627]: 4 nM and 107%.
For `CCc1ncc2c(n1)n(C)c(=O)n2C(=O)N1CC(c2ccc(F)cc2)C1` [compound 628] the same measures were 10 nM and 90%.
The matching figures for `CN(C)C(=O)n1c(=O)n(C)c2cnc(CCOc3cccc(F)c3)nc21` [compound 639]: 27 nM and 76%.
As to `CN(C)C(=O)n1c(=O)n(C)c2cnc(CCOc3ccc(Cl)cc3)nc21` [compound 640], the IC50 came to 12 nM. Besides, under setting [2], the inhibition at 0.1 µM was found to be 95%.
Regarding `CN(C)C(=O)n1c(=O)n(C)c2cnc(CCOc3cccc(C(F)(F)F)c3)nc21` [compound 642], the 50% inhibitory concentration (IC50) was 9 nM. Further, the inhibition at 0.1 µM under setting [2] is 89%.
For `CN(C)C(=O)n1c(=O)n(C)c2cnc(Cc3ccccc3Cl)nc21` [compound 652] the same measures were 31 nM and 60%.
Take `CN(C)C(=O)n1c(=O)n(C)c2cnc(Cc3ccc(Cl)cc3)nc21` [compound 653]: the half-inhibitory concentration (IC50) worked out at 11 nM. Besides, the inhibition at 0.1 µM under setting [2] worked out at 108%.
With `COCc1ncc2c(n1)n(C1CC1)c(=O)n2C(=O)N1CC(c2ccccc2)C1` [compound 663], the half-maximal inhibitory concentration (IC50) is 24 nM. For the same molecule, the inhibition at 0.1 µM under setting [2] is 88%.
For `COCc1ncc2c(n1)n(C1CC1)c(=O)n2C(=O)N1CC(c2ccc(F)cc2)C1` [compound 664] the same measures were 10 nM and 102%.
The matching figures for `COCc1ncc2c(n1)n(C1CC1)c(=O)n2C(=O)N1CC(c2cccc(F)c2)C1` [compound 665]: 7 nM and 99%.

As usually defined, the inhibition is the drop in the measured response relative to a control, in per cent. By IC50 is commonly meant the concentration that gives 50% inhibition.

These data come from patent publication US8735406B2, “8-oxodihydropurine derivative” (Dainippon Sumitomo Pharma Co., Ltd., priority 2009, dated 2014).
